Measured values published in patent US10952434B2, “Compositions and methods for attracting insects” (The United States of America, as Represented by the …, priority 2016, dated 2021).

Columns and labels:
[1] = system: female Aedes aegypti; assay: Flight tunnel mosquito bioassay; assay type: in vivo; conditions: for fed (mean of triplicates) / probed (mean of triplicates): paired with control; for feeding attraction, in words: three different concentrations
Protocol: Mosquitoes: Aedes aegypti (Liverpool) were reared in an insectary using standard rearing procedures. Approximately 50 larvae were reared in plastic cups (13×7×7.5 cm) at 27±1° C., and were fed ground up fish pellets. Adults were contained in plastic cartons covered by nylon screening and were fed using cotton pads soaked in a 10% glucose solution. Prior to blood feeding, 20 adult females, approximately 6 to 8 days old, were aspirated out of the rearing cartons and placed in to a stock cage (20×20×20 cm). Flight Tunnel Mosquito Bioassay: The assay system consists of a six well reservoir placed at the upwind end of a flight tunnel ([…]). Temperature and humidity of the flight tunnel were maintained at rearing conditions as described above. Air was constantly pushed through the flight tunnel at a wind speed of 35 ft/min. The four center wells of the six well reservoir were utilized in these bioassays. One of the 3 cm×4 cm wells contained 6 ml of citrate-phosphate-dextrose-adenine (CPDA) solution and three wells contained 6 ml of CPDA solution supplemented with adenosine triphosphate (ATP) (Sigma Chemical Co., St. Louis, Mo.). A constant-temperature water circulator warmed the reservoir to 38° C. A collagen membrane (Devro, Sandy Run, S.C.) was placed over the wells and secured to the reservoir with a light coat of high-vacuum grease (Dow Corning Corp., Midland, Mich.). The membranes were replaced after each replicate observation and additional substrate was added as needed. The reservoir and CPDA solution was used for one replicate. Twenty mosquitoes were aspirated into a cylindrical release canister (20.5 mm×7 mm) containing a mesh screen on one end and a damper on the opposite end (Precision Plastics, Inc., Beltsville, Md.). Mosquitoes were allowed to acclimate in the canister for ten minutes and then were utilized in bioassays. The canister was placed downwind of the reservoir in the flight tunnel. Human breath was introduced in a plume into the tunnel for one minute prior to opening of the release canister. Mosquitoes were then released into the flight tunnel where the number of mosquitoes biting (proboscis inserted through the membrane) within each cell during the 10-min exposure was recorded. The solution in each well consisted of either CPDA in deionized water or one of the three experimental solutions, 10^−2M, 10^−3 M, or 10^−4 M ATP with CPDA, each marked with a randomly assigned food dye color (Betty Crocker). The position of each colored solution in the reservoir was also randomized. Mosquitoes were used once in a test and then aspirated for determination of engorgement. Several attractant candidates were compared one on one with each other, and with CO2 in the flight tunnel to evaluate efficacy.

[2] = system: female Aedes aegypti; assay: K&D module high-throughput feeding assay; assay type: in vivo; conditions: for mean fed / mean probed: five females/cell
Protocol: Highthrouhput Feeding Assay: The K&D module was developed at USDA for evaluating feeding deterrence and toxicity of candidate topical repellents against hemophagus arthropod vectors (Klun, J. A., and M. Debboun, J. Med. Entomol., 37: 177-181 (2000)). In the present study the K&D module was used as a highthrouhput screening tool to evaluate response of Ae. aegypti to attractant\feeding stimuli.
In vitro bioassays were conducted as described by Klun et. al., 2000. […] The three treatments were randomly assigned to consecutive cells in 2,6-cell reservoirs connected in series to a single water-bath pump; thus, 4 replicates could be tested/run.
Tests were performed in an Air Science USA hood, with an air movement velocity of approx. 110-120 ft./min., temperature of 25-27° C., and RH of 15-25%. A six-celled reservoir was connected to and heated by a constant-temperature (38° C.) water circulator (Lauda E100, Wobser GMGH and Co., Konigshofell, Germany).
Prior to each test, the upper surface of each reservoir was coated with a thin layer of high-vacuum silicone grease (Dow Corning Corp., Midland, Mich.), and the cells then filled (approx. 6 ml. capacity) or topped-off with the following: (1) expired human red blood cells suspended in citrate-phosphate-dextrose-adenine (CPDA) solution, not more than 1 month past expiration date, and to which 110 mg ATP/35 ml. blood-CPDA had been added on the day of testing; or (2) CPDA+ATP×10^−3, usually made up or diluted to 10^−3 ATP on the day of testing.
The filled cells were then covered with an Edicol collagen membrane strip (Devro, Sandy Run, S.C.), and then with a just-treated (110 μl of 4.54 nmol/μl treatment or control solution) organdy cloth strip (G Street Fabrics, Rockville, Md.).
Mosquitoes used in the tests were either Aedes aegypti (Liverpool) or Aedes albopictus (Asian Tiger mosquitoes (ATMs)). Ae. aegypti and Ae. albopictus were originally obtained from colonies at the Walter Reed Army Institute of Research (WRAIR), Silver Spring, Md., and were maintained in colonies at the Beltsville Agricultural Research Center, USDA, ARS, Beltsville, Md. The larvae were reared (Gerber, E. J., et al., Manual for mosquito rearing and experimental techniques, Am. Mosq. Control Assoc. Bull. 5 (revised), AMCA, Inc., Lake Charles, La. (1994)) by feeding larvae ground tropical fish pellets (Hikari Cichlid Gold Fish Food, Kamihata Fish Ind. Ltd., Himeji, Japan, www.hikari.info). Adults were held at 12:12 h (light:dark) photoperiod at 26° C. and 50% RH, and fed with a cotton pad moistened with 10% aqueous sucrose solution. For both species, adult mosquitoes used in the tests were between 5-10 days old, and were kept on water pads only for 24 hrs. prior to testing. Ae. aegypti used in a given test session were all loaded into K&D modules at one time, with five adult females/cell, and tested within I-2 hrs.
K&D modules containing five adult females/cell were placed over a Teflon separator atop each reservoir; the sliding floors opened allowing access to the treated organdy cloth and membrane-covered cell, and the number of mosquitoes biting (proboscis inserted through the cloth) and/or observed to be engorged within each cell at the end of a 3-5 min. exposure period was recorded. Mosquitoes were used only once in a test, and then frozen and discarded.
Only tests in which three or more females fed in the control cell were analyzed, as lower feeding rates are indicative of substandard feeding readiness of that group of mosquitoes.
Feeding/probing responses observed on control, standard, and experimental compound-treated cells were compared using an R-code statistical analysis (Chauhan, K. R., et al., Journal of Medical Entomology, 42: 643-646 (2005)).

[3] = system: Ae. aegypti; assay: Attract and kill bait evaluation in bucket; assay type: in vivo, Aedes aegypti; conditions: sugar gel containing pyriproxyfen spiked with 5 ml of Okoumal
Excerpt: Attract and Kill Bait Evaluation: The assay system consists of a 1L plastic bucket covered with screened lid. A divider was placed to separate attract and kill bait from the control feeding. 50 Adult mosquitoes used in tests were between 5-10 days old, and were kept on water pads only for 24 hrs. prior to testing. Ae. aegypti used in each test session were all loaded into plastic bucket with attract and kill bait and control feeding formulation made with agarose gel containing sugar and color. In the preliminary semi-field trial, baits were charged with attractant candidates and deployed in to the either hut or tents. In one experiment 30 adult female Aedes aegypti mosquitoes were released, while in another trial at different location 20 adult female Aedes aegypti mosquitoes were released and observed for the attraction or attract-kill effect of the candidates. To incorporate invented field stable and long lasting attractants in the baits various putative devices were constructed and few of these attract and kill bait formulations were evaluated in the insectary and semi-field conditions. Data analysis: Attraction assay data were analyzed using the Wilcoxon two-sample test (PROC NPAR1WAY, SAS 1999) to examine the difference between the numbers of mosquitoes in control from treated baits. […]

[4] = system: host seeking Aedes albopictus females; assay: Field study with BG Sentinel traps in yards; assay type: in vivo; conditions: BG Sentinel trap with attractant lure, 24 hr periods, 10 yards; control 3-4
Protocol: In field studies, Okoumal (1) was evaluated as an attractant for host seeking Aedes albopictus females in the BG Sentinel traps placed in different areas (yards). In the before and after control intervention evaluation, one standard BG Sentinel mosquito trap was placed in each of the 10 yards and mosquitoes were trapped for 24 hr periods in ten replicates. The first five replicates were before adding Okoumal attractant as intervention. The second set of five replicates included additional lure to the BG Sentinel trap. The traps with attractant lures collected more mean mosquitoes per trap per day (6-7 vs 3-4 mosquitoes), compared to control.

[5] = system: Aedes albopictus, Ae. triseratus, and Ae. japonicus; assay: Field study with oviposition cups; assay type: in vivo; conditions: 0 to 1% in oviposition cups, forested area, retrieved after 10 days
Protocol: In the second field study different concentrations (0 to 1%) of Okoumal (1) were added to oviposition cups. Oviposition cups were placed in forested area that has known populations of Aedes albopictus, Ae. triseratus, and Ae. japonicus. Ovicups were retrieved after 10 days and accessed for the presence of mosquito eggs of different species.

[6] = system: mosquitoes; conditions: compared with matching control traps baited with CO2; cited from earlier work
[7] = CO2 (dry ice) + air paired with 0.1% Okoumal
[8] = CO2 (dry ice) + air paired with 0.1% cyclopentanone
[9] = CO2 (dry ice) + air paired with 1% Okoumal
[10] = CO2 (dry ice) + air paired with 1% cyclopentanone
[11] = CO2 (dry ice) + air paired with air
[12] = 0.1% concentration, paired with CO2 (dry ice) + air
[13] = 1% concentration, paired with CO2 (dry ice) + air

SMILES | fed (mean of triplicates) ([1]; 0.10% concentration) | probed (mean of triplicates) ([1]; 0.10% concentration) | fed (mean of triplicates) ([1]; 1.00% concentration) | probed (mean of triplicates) ([1]; 1.00% concentration) | fed (mean of triplicates) ([1]; 5% concentration) | probed (mean of triplicates) ([1]; 5% concentration) | feeding attraction, in words [1] | other results
O=C=O [CO2 (dry ice), Carbon dioxide, reference compound] |  |  |  |  |  |  |  | mean fed [1, 7]: 3; mean probed [1, 7]: 3.7; mean fed [1, 8]: 2.8; mean probed [1, 8]: 3.1; mean fed [1, 9]: 2; mean probed [1, 9]: 2.2; mean fed [1, 10]: 2.1; mean probed [1, 10]: 2.3; mean fed [1, 11]: 1.8; mean probed [1, 11]: 2.1
C1CCC2(C1)OCCO2 [Compound I-90] | 2.7 | 5.7 | 4 | 8.3 | 3 | 8.7 | consistent feeding attraction | 
CC1COC2(CCCC2)O1 (centres unmarked) [Compound I-95] |  |  | 3.3 | 12 | 3.3 | 8.3 |  | 
CC1COC2(CCCCC2)O1 (centres unmarked) [Compound I-96] | 3 | 6.3 | 2.7 | 8.3 | 2.7 | 12.7 | consistent feeding attraction | 
COC1(OC)CCCC1 [Compound I-152] |  |  | 0.7 | 1.3 | 1 | 1.7 |  | 
COC1(OC)CCCCC1 [Compound I-182] |  |  | 2.7 | 5.7 | 2 | 12.3 |  | 
CCN(CC)C(=O)c1cccc(C)c1 [Deet, reference compound] |  |  |  |  |  |  |  | mean fed ([2]; Deet standard (4.54 nmol/μl)): 0.1; mean probed ([2]; Deet standard (4.54 nmol/μl)): 0.1
CC1COC(C)(c2ccc3c(c2)C(C)(C)CCC3(C)C)O1 (centres unmarked) [Okoumal] | 3.3 | 18.3 | 2.8 | 9.7 | 2.3 | 13.3 | consistent feeding attraction | mean fed ([2]; 0.1% concentration): 3.6; mean probed ([2]; 0.1% concentration): 3.3; mean fed ([2]; 0.25% concentration): 2.8; mean probed ([2]; 0.25% concentration): 3; mean fed ([2]; 1% concentration): 3.5; mean probed ([2]; 1% concentration): 3.9; mean fed ([2]; 5% concentration): 2.8; mean probed ([2]; 5% concentration): 2.9; feeding compared with control, in words ([2]; four different concentrations, twenty replicates): consistent feeding on par with either control or better; mean fed [1, 12]: 3.9; mean probed [1, 12]: 3.6; mean fed [1, 13]: 3.8; mean probed [1, 13]: 4.1; feeding (host seeking) preference, in words ([1]; compared with CO2 and cyclopentanone, host seeking female mosquitoes): consistent feeding (host seeking) preference; mosquitoes in the bucket preferring feeding on treated gel over control sugar gel [3]: 90%; mean mosquitoes per trap per day [4]: 6-7 mosquitoes; effect on numbers of oviposited eggs, in words [5]: significant effect of Okoumal concentration on numbers of oviposited eggs
O=C1CCCCC1 [cyclohexanone, reference compound] |  |  | 0.3 | 0.7 | 1.7 | 3.7 |  | 
O=C1CCCC1 [cyclopentanone, reference compound] | 3 | 7 | 2 | 5.7 | 1 | 1.7 |  | mean fed [1, 12]: 2.6; mean probed [1, 12]: 2.2; mean fed [1, 13]: 2.1; mean probed [1, 13]: 2.8; attractiveness of baited traps, in words [6]: equivalent to that of matching control traps baited with CO2
